Data from PubChem BioAssay (NCI).
Where “and” joins values, the source holds several entries; their conditions need not be identical. Identical values can stand only once.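 Results reflect a 48-hour exposure of cells in 96-well plates to compound at five concentrations. GI50 = concentration required for 50% inhibition of growth. The concentration for full growth arrest is given as TGI.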

Tests used:
Test in all cases: NCI anticancer screen, dose series, 48 h
[1] = test system: CCRF-CEM leukemia
[2] = test system: SF-295 CNS
[3] = test system: 786-0 renal
[4] = test system: OVCAR-8 ovarian
[5] = test system: MOLT-4 leukemia
[6] = test system: OVCAR-3 ovarian
[7] = test system: K-562 leukemia
[8] = test system: HOP-92 NSCLC
[9] = test system: EKVX NSCLC
[10] = test system: HT29 colon
[11] = test system: DU-145 prostate
[12] = test system: HOP-62 NSCLC
[13] = test system: M14 melanoma
[14] = test system: SF-268 CNS
[15] = test system: A549 NSCLC
[16] = test system: HS 578T breast
[17] = test system: SNB-75 CNS
[18] = test system: HCC-2998 colon

Row | Compound | TGI [1] | TGI [2] | TGI [3] | TGI [4] | TGI [5] | TGI [6] [µM] | TGI [7] | TGI [8] | TGI [9] | TGI [10] | TGI [11] | TGI [12] [µM] | TGI [13] | TGI [14] | TGI [15] | TGI [16] | GI50 [17] | TGI [17] | TGI [18] [µM]
1 | Cc1ccc(S(=O)c2cccs2)cc1 (stereo not drawn) | > 100 µM | > 100 µM | > 100 µM | > 100 µM | > 100 µM | > 100 | > 100 µM | > 100 µM | > 100 µM | > 100 µM | > 100 µM | > 100 | > 100 µM | > 100 µM | > 100 µM |  |  |  | 
2 | CC1=CC(=O)CC2(C)CCC(C(C)CC(=O)CC(C)C)CC12OO (stereo not drawn) | 59.8 µM and 46.6 µM | 31 µM and 30 µM | 22.7 µM and 26 µM | 90.2 µM and 45.4 µM | 40.2 µM and 35.3 µM |  | 75 µM and 31.9 µM | 31 µM and 37 µM | 36.8 µM and 34.3 µM | 43.2 µM and 31.1 µM | 32.3 µM and 29.5 µM |  | 32.4 µM and 30.1 µM | 44.1 µM and 32.6 µM | 30 µM and 31.1 µM | 88.3 µM and > 100 µM | 19.8 µM and 55.7 µM | 44.9 µM and > 100 µM | 
3 | CC(C)Oc1c(C2(c3ccccc3)SCCCS2)c(=O)c1=O | > 100 µM | > 100 µM | > 100 µM | > 100 µM | > 100 µM | > 100 |  | > 100 µM | > 100 µM | > 100 µM | > 100 µM | > 100 | > 100 µM | > 100 µM | > 100 µM | > 100 µM |  | > 100 µM | 
4 | CC1(C)OP(=O)(c2ccccc2)C=C1Sc1ccc([N+](=O)[O-])cc1[N+](=O)[O-] (stereo not drawn) |  | > 100 µM | > 100 µM | > 100 µM |  | > 100 | 67.3 µM | > 100 µM | > 100 µM | > 100 µM | > 100 µM | > 100 | > 100 µM | > 100 µM | > 100 µM | > 100 µM |  | > 100 µM | 
5 | CCOC(=O)c1c[nH]c(C(=O)OCC)c1-c1cccn1-c1ccccc1 | 52.2 µM | 52.3 µM | > 100 µM | 59.6 µM | 53 µM | 37.4 | 45.4 µM | > 100 µM | > 100 µM | 89.9 µM | > 100 µM | 50 | 41.9 µM | > 100 µM | > 100 µM | 59 µM |  | 52.2 µM | 
6 | O=[N+]([O-])c1ccc(SN=S=NSc2cccc(SN=S=NSc3ccc([N+](=O)[O-])cc3)c2)cc1 | 42.5 µM | > 100 µM | 27.2 µM | 53.4 µM | > 100 µM | > 100 | > 100 µM | > 100 µM | > 100 µM | > 100 µM |  | > 100 | > 100 µM | > 100 µM | > 100 µM | > 100 µM |  |  | > 100
7 | CC1(C)CCN2C(=O)C34CCCC3CC21S4 (stereo not drawn) | > 100 µM | > 100 µM | > 100 µM | > 100 µM | > 100 µM | > 100 | > 100 µM | > 100 µM | > 100 µM | > 100 µM | > 100 µM | > 100 | > 100 µM | > 100 µM | > 100 µM | > 100 µM |  |  | 
8 | COc1ccc(C2=Nc3c(nc(OC)[nH]c3=O)NC(c3ccccc3)C2)cc1 (stereo not drawn) | > 100 µM | > 100 µM | 93.6 µM | 54.4 µM | > 100 µM | > 100 | 73.1 µM | > 100 µM | > 100 µM | > 100 µM | > 100 µM | > 100 | > 100 µM |  | > 100 µM |  |  | 58.5 µM | 
9 | CCCCCCCC/C=C1\CCC(CN(C)C)C1=O (stereo not drawn) | 6.96 µM | 18 µM | 2.88 µM | 9.67 µM | 10.1 µM | 22 | 7.2 µM | 8.02 µM | 21.6 µM | 12.5 µM |  | 24.7 | 12 µM | 21.2 µM | 39.9 µM |  |  | 14.1 µM | 22
10 | COC(=O)C(=O)C(C(=O)OC)C(=O)C(=O)Nc1c(C)cccc1C (stereo not drawn) | > 100 µM | > 100 µM | > 100 µM | > 100 µM | > 100 µM | > 100 | > 100 µM | > 100 µM | > 100 µM | > 100 µM |  | > 100 | > 100 µM | > 100 µM | > 100 µM |  |  | > 100 µM | > 100
11 | Nc1nc(NNc2cccc(F)c2)cc(=O)[nH]1 | > 100 µM | > 100 µM | 37.5 µM | > 100 µM | > 100 µM | 51.5 | 74 µM |  | > 100 µM | 54.6 µM | > 100 µM | 58.5 | > 100 µM |  | > 100 µM | > 100 µM |  |  | > 100
12 | O=C1NC2NC3NC(=O)NC3NC2N1 (stereo not drawn) | > 100 µM | > 100 µM | > 100 µM | > 100 µM | > 100 µM | > 100 | > 100 µM | > 100 µM | > 100 µM | > 100 µM | > 100 µM | > 100 | > 100 µM |  | > 100 µM |  |  | > 100 µM | 
